In brackets after ≈: the same amount, converted by molar mass. Values belong to the compound of their own block, whether it stands above or below them.
Tests used:
Experiment in all cases: ≥ marks a high value that may be exact or a test limit, other limits are often not marked, values filed in µg/mL are converted to µM
[1] = tested on: Pseudomonas aeruginosa ATCC 10145
[2] = tested on: Pseudomonas aeruginosa 1109
[3] = tested on: Pseudomonas aeruginosa ATCC 27853
[4] = tested on: Pseudomonas aeruginosa ATCC BAA-1744
[5] = tested on: Pseudomonas aeruginosa ATCC 9721
[6] = tested on: Acinetobacter baumannii ATCC BAA-1605
[7] = tested on: Acinetobacter baumannii ATCC 19606
[8] = tested on: Pseudomonas aeruginosa ATCC 9027
[9] = tested on: Pseudomonas aeruginosa ATCC 35032
[10] = tested on: Pseudomonas aeruginosa ATCC 25619
[11] = tested on: Acinetobacter baumannii NR-9667
[12] = tested on: Acinetobacter baumannii ATCC BAA-747
[13] = tested on: Pseudomonas aeruginosa ATCC 15442
[14] = tested on: Pseudomonas aeruginosa PAO1
[15] = tested on: Staphylococcus aureus ATCC 25923
[16] = tested on: Staphylococcus epidermidis ATCC 35984
[17] = tested on: Staphylococcus aureus ATCC 33591
Cladosporium herbarum = tested on: Cladosporium herbarum
Botrytis cinerea = tested on: Botrytis cinerea
Fusarium solani = tested on: Fusarium solani
[18] = tested on: Pectobacterium carotovorum subsp. carotovorum DSM 30168
Alternaria alternata = tested on: Alternaria alternata
[19] = tested on: Clavibacter michiganensis subsp. michiganensis DSM 46294
[20] = tested on: Pseudomonas syringae pv. syringae DSM 10604
[21] = tested on: Pseudomonas corrugata DSM 7228
[22] = tested on: Xanthomonas vesicatoria DSM 50861
[23] = tested on: Pseudomonas syringae pv. tomato DC3000
[24] = tested on: Escherichia coli KCTC 1682
[25] = tested on: Staphylococcus aureus KCCM 40510
[26] = tested on: Enterococcus faecium KCCM 12118
[27] = tested on: Staphylococcus epidermidis KCTC 1917
[28] = tested on: Staphylococcus aureus KCTC 1621
[29] = tested on: Salmonella typhimurium KCTC 1926
[30] = tested on: Enterococcus faecalis KCCM 29212
[31] = tested on: Bacillus subtilis KCTC 3068
[32] = tested on: Pseudomonas aeruginosa KCTC 1637
[33] = tested on: Enterococcus faecalis ATCC 51575
[34] = tested on: Enterococcus faecium ATCC 51559
Candida albicans SC5314 = tested on: Candida albicans SC5314
[35] = tested on: Escherichia coli ATCC 25922
Bacillus subtilis = tested on: Bacillus subtilis
[36] = tested on: Staphylococcus aureus ATCC 2592

Structure (SMILES): CC[C@H](C)[C@H](NC(=O)[C@H](CCCCN)NC(=O)[C@H](CCCCN)NC(=O)[C@H](Cc1c[nH]c2ccccc12)NC(=O)[C@@H](NC(=O)[C@H](CCCCN)NC(=O)[C@@H](NC(=O)[C@H](CCCN=C(N)N)NC(=O)[C@H](CCCN=C(N)N)NC(=O)[C@H](CCCCN)NC(=O)[C@@H](N)Cc1c[nH]c2ccccc12)[C@@H](C)CC)[C@@H](C)CC)C(=O)N[C@@H](CCCN=C(N)N)C(=O)O [WKRRIKIWKKIR]
MIC [1]: ≥ 256 µM
MIC [2]: ≥ 128 µM
MIC [3]: 256 µM (≈ 438 µg/mL)
MIC [4]: ≥ 256 µM
MIC [5]: ≥ 256 µM
MIC [6]: ≥ 256 µM
MIC [7]: > 256 µM
MIC [8]: > 256 µM
MIC [9]: ≥ 256 µM
MIC [10]: ≥ 256 µM
MIC [11]: ≥ 256 µM
MIC [12]: ≥ 256 µM
MIC [13]: ≥ 256 µM
MIC [14]: > 256 µM

Structure (SMILES): C[C@H](NC(=O)[C@H](Cc1cnc[nH]1)NC(=O)[C@H](CO)NC(=O)[C@@H](N)CC(=O)O)C(=O)N[C@@H](CCCCN)C(=O)N[C@@H](CCCN=C(N)N)C(=O)N[C@@H](Cc1cnc[nH]1)C(=O)N[C@@H](Cc1cnc[nH]1)C(=O)NCC(=O)N[C@H](C(=O)N[C@@H](CCCCN)C(=O)N[C@@H](CCCN=C(N)N)C(=O)N[C@@H](CCCCN)C(=O)N[C@@H](Cc1ccccc1)C(=O)N[C@@H](Cc1cnc[nH]1)C(=O)N[C@@H](CCC(=O)O)C(=O)N[C@@H](CCCCN)C(=O)N[C@@H](Cc1cnc[nH]1)C(=O)N[C@@H](Cc1cnc[nH]1)C(=O)N[C@@H](CO)C(=O)N[C@@H](Cc1cnc[nH]1)C(=O)N[C@@H](CCCN=C(N)N)C(=O)NCC(=O)N[C@H](C(=O)O)[C@@H](C)O)[C@@H](C)O [DSHAKRHHGTKRKFHEKHHSHRGT]
MIC (Cladosporium herbarum): 22 µM (≈ 64 µg/mL)
MIC (Botrytis cinerea): 22 µM (≈ 64 µg/mL)
MIC (Fusarium solani): 5.49 µM (≈ 16 µg/mL)
MIC [18]: 22 µM (≈ 64 µg/mL)
MIC (Alternaria alternata): 22 µM (≈ 64 µg/mL)
MIC [19]: 22 µM (≈ 64 µg/mL)
MIC [20]: 22 µM (≈ 64 µg/mL)
MIC [21]: 22 µM (≈ 64 µg/mL)
MIC [22]: 22 µM (≈ 64 µg/mL)
MIC [23]: 22 µM (≈ 64 µg/mL)

Structure (SMILES): CC[C@H](C)[C@H](NC(=O)[C@H](CS)NC(=O)[C@H](CC(C)C)NC(=O)[C@@H](N)CC(C)C)C(=O)N[C@@H](C)C(=O)N[C@@H](CC(C)C)C(=O)N[C@@H](CCCN=C(N)N)C(=O)N[C@@H](CCCCN)C(=O)N[C@@H](CCCCN)C(N)=O [LLCIALRKK]
MIC [24]: 3.78 µM (≈ 4 µg/mL)
MIC [25]: 7.57 µM (≈ 7.99 µg/mL)
MIC [26]: 7.57 µM (≈ 7.99 µg/mL)
MIC [27]: 3.78 µM (≈ 4 µg/mL)
MIC [28]: 7.57 µM (≈ 7.99 µg/mL)
MIC [29]: 3.78 µM (≈ 4 µg/mL)
MIC [30]: 0.946 µM (≈ 0.999 µg/mL)
MIC [31]: 3.78 µM (≈ 4 µg/mL)
MIC [32]: 7.57 µM (≈ 7.99 µg/mL)
MIC [33]: 0.946 µM (≈ 0.999 µg/mL)
MIC [34]: 1.89 µM (≈ 2 µg/mL)

Structure (SMILES): CC(C)[C@H](N)C(=O)N[C@@H](CCCCN)C(=O)N[C@@H](CCCN=C(N)N)C(=O)N[C@@H](Cc1c[nH]c2ccccc12)C(=O)N[C@@H](CCCCN)C(=O)N[C@@H](CCCCN)C(=O)N[C@@H](Cc1c[nH]c2ccccc12)C(=O)N[C@@H](Cc1ccccc1)C(=O)N[C@@H](CCCN=C(N)N)C(=O)N[C@@H](CCCCN)C(=O)N[C@@H](Cc1c[nH]c2ccccc12)C(=O)N[C@@H](CCCCN)C(=O)N[C@@H](CCCCN)C(=O)N[C@@H](Cc1c[nH]c2ccccc12)C(=O)N[C@H](C(N)=O)C(C)C [VKRWKKWFRKWKKWV]
MIC (Candida albicans SC5314): 4.3 µM (≈ 9.41 µg/mL)
MIC [35]: 2.1 µM (≈ 4.6 µg/mL)
MIC (Bacillus subtilis): 4.3 µM (≈ 9.41 µg/mL)
MIC [36]: 8.5 µM (≈ 18.6 µg/mL)

Structure (SMILES): CC[C@H](C)[C@H](NC(=O)[C@H](CCCCN)NC(=O)[C@H](CCCN=C(N)N)NC(=O)[C@H](CC(C)C)NC(=O)[C@H](C)NC(=O)[C@H](CCCCN)NC(=O)[C@H](CS)NC(=O)[C@H](CC(C)C)NC(=O)[C@@H](N)CC(C)C)C(N)=O [LLCKALRKI]
MIC [24]: 7.57 µM (≈ 7.99 µg/mL)
MIC [25]: 7.57 µM (≈ 7.99 µg/mL)
MIC [26]: 3.78 µM (≈ 4 µg/mL)
MIC [27]: 7.57 µM (≈ 7.99 µg/mL)
MIC [28]: 7.57 µM (≈ 7.99 µg/mL)
MIC [29]: 7.57 µM (≈ 7.99 µg/mL)
MIC [30]: 7.57 µM (≈ 7.99 µg/mL)
MIC [31]: 3.78 µM (≈ 4 µg/mL)
MIC [32]: 7.57 µM (≈ 7.99 µg/mL)
MIC [33]: 30.3 µM (≈ 32 µg/mL)
MIC [34]: 1.89 µM (≈ 2 µg/mL)

Results, then the compound that gave them:

MIC [15]: 17.1 µM (≈ 32 µg/mL)
MIC [16]: 3.03 µM (≈ 5.65 µg/mL)
MIC [17]: ≥ 48.5 µM
Structure (SMILES): CC[C@H](C)[C@H](NC(=O)CN)C(=O)NCC(=O)N[C@@H](CCCCN)C(=O)N[C@@H](Cc1ccccc1)C(=O)N[C@@H](CC(C)C)C(=O)N[C@@H](CCCCN)C(=O)N[C@@H](CCCCN)C(=O)N[C@@H](C)C(=O)N[C@@H](CCCCN)C(=O)N[C@@H](CCCCN)C(=O)N[C@@H](Cc1ccccc1)C(=O)NCC(=O)N[C@@H](CCCCN)C(=O)N[C@@H](C)C(=O)N[C@@H](Cc1ccccc1)C(=O)N[C@H](C(N)=O)C(C)C [GIGKFLKKAKKFGKAFV]

MIC [3]: 33.5 µM (≈ 45.2 µg/mL)
MIC [15]: 190 µM (≈ 256 µg/mL)
MIC [16]: ≥ 94.8 µM
MIC [17]: ≥ 94.8 µM
Structure (SMILES): CC[C@H](C)[C@H](NC(=O)[C@H](CCCCN)NC(=O)[C@@H](NC(=O)[C@H](Cc1ccccc1)NC(=O)[C@H](C)NC(=O)[C@H](CCCCN)NC(=O)CNC(=O)[C@H](Cc1ccccc1)NC(=O)[C@H](CCCCN)NC(=O)[C@H](CCCCN)NC(=O)[C@H](C)N)C(C)C)C(=O)N[C@@H](CC(C)C)C(N)=O [AKKFGKAFVKIL]

From DBAASP
